Data published in patent US8093231B2, “Sulfonylethyl phosphorodiamidates” (Telik, Inc., priority 2004, dated 2012).
Like-named read-outs stand apart in the source and are kept apart here.

What was measured:
[1] = test system: DLD-1 (colorectal adenocarcinoma); test: Cytotoxicity/growth inhibition assay, DLD-1; assay type: cell-based, human; settings: read-out: IC50 (DLD-1)
Outline: (§1)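 Test compounds in DMSO (0.1–200 μM; final DMSO 0.5%) added to freshly diluted cells (3×10^3 cells/mL MX-1 and DLD-1, 6×10^3 cells/mL LNCap), triplicate wells. Cultured ~three doubling times (3 days MX-1, 4 days DLD-1/LNCap). CellTiter-Glo luminescence, 15 min room temperature; growth expressed as % of DMSO solvent control.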

[2] = test system: MX-1 (human breast cancer) tumor; test: MX-1 xenograft assay, intraperitoneal administration; assay type: in vivo, athymic nu/nu mice; settings: for activity in MX-1 xenograft assay / tumor growth inhibition compared to vehicle: 100 mg/Kg intraperitoneal once/day for 5, 9, or 14 days; for tumor inhibition / dose dependence of tumor inhibition: intraperitoneal; for dose dependence of tumor inhibition: range of doses and treatment times
Procedure: (§2) Female athymic nu/nu mice (Harlan, Indianapolis, Ind., U.S.A. or similar vendor), 6-8 weeks old (approximately 20 g), were implanted in the mammary fat pad of the right fore flank with 20-30 mg pieces of MX-1 (human breast cancer) tumor harvested from similar mice that had previously been implanted with the MX-1 tumor. Approximately 7-10 days after tumor transplantation, when the tumor weight was approximately 50-200 mg, the mice were assigned to treatment groups. […] All compounds were active in this assay, with tumor growth inhibition compared to vehicle between 5% (compound 171A) and 99% (compound 13A), with most compounds causing at least 30% tumor growth inhibition. […] Compound 13A was tested at 25, 50, or 100 mg/Kg for 5 or 9 days, causing tumor inhibition between 19% (25 mg/Kg for 5 days) and 99% (100 mg/Kg for 9 days). Compound 70A was tested at 50, 100, and 150 mg/Kg for 5 or 12 days, causing tumor inhibition between 16% (50 mg/Kg for 5 days) and 95% (150 mg/Kg for 12 days).

[3] = test system: LNCap (prostate carcinoma); test: Cytotoxicity/growth inhibition assay, LNCap; assay type: cell-based, human; settings: read-out: IC50 (LNCap)
Outline: as §1

MX-1 (breast carcinoma) = test: Cytotoxicity/growth inhibition assay, MX-1; assay type: cell-based, human; settings: read-out: IC50 (MX-1)
Outline: as §1

[4] = test system: HCT116 (human colon cancer) tumor; test: HCT116 xenograft assay, intraperitoneal administration; assay type: in vivo, athymic nu/nu mice; settings: for inhibition of tumor growth compared to vehicle: measured 13 days after start; for activity in HCT116 xenograft assay: intraperitoneal once/day for 11 days
Procedure: Male athymic nu/nu mice, 6-8 weeks old (approximately 20 g), were implanted subcutaneously in the right fore flank with 20-30 mg pieces of HCT116 (human colon cancer) tumor harvested from similar mice that had previously been implanted with the HCT116 tumor. Approximately 7-10 days after tumor transplantation, when the tumor weight was approximately 50-200 mg, the mice were assigned to treatment groups. Groups of mice were treated with compounds 5A or 13A at 100 mg/Kg, or compound 70A at 150 mg/Kg, by intraperitoneal injection once/day for 11 days, with vehicle control. Tumor growth inhibition was measured 13 days after the start of treatment.

[5] = test system: MX-1 (human breast cancer) tumor; test: MX-1 xenograft assay, oral administration; assay type: in vivo, athymic nu/nu mice; settings: for inhibition of tumor growth compared to vehicle / dose dependence of tumor inhibition, oral: measured 13 days after start; for activity in MX-1 xenograft assay, oral / dose dependence of tumor inhibition, oral: gavage once/day for 5 days
Procedure: as §2
A study similar to that described in In vivo Example 1 was performed using oral administration of compounds 13A and 70A. Groups of mice were treated with compound 13A at 50, 100, or 300 mg/Kg, or compound 70A at 100, 150, 200, or 250 mg/Kg, by gavage once/day for 5 days (with vehicle control). Tumor growth inhibition was measured 13 days after the start of treatment.

[6] = test system: MiaPaCa-2 (human pancreatic cancer) tumor; test: MiaPaCa-2 xenograft assay, intraperitoneal administration; assay type: in vivo, athymic nu/nu mice; settings: 100 mg/Kg intraperitoneal once/day for 14 days; for inhibition of tumor growth compared to vehicle: measured 15 days after start
Procedure: Male athymic nu/nu mice, 6-8 weeks old (approximately 20 g), were implanted subcutaneously in the right fore flank with 20-30 mg pieces of MiaPaCa-2 (human pancreatic cancer) tumor harvested from similar mice that had previously been implanted with the MiaPaCa-2 tumor. Approximately 7-10 days after tumor transplantation, when the tumor weight was approximately 50-200 mg, the mice were assigned to treatment groups. Groups of mice were treated with compound 13A or 70A at 100 mg/Kg by intraperitoneal injection once/day for 14 days, with vehicle control. Tumor growth inhibition was measured 15 days after the start of treatment.

[7] = test system: MiaPaCa-2 (human pancreatic cancer) tumor; test: MiaPaCa-2 xenograft assay, oral administration; assay type: in vivo, athymic nu/nu mice; settings: 200 mg/Kg for 7 days
DLD-1 cells = test: Cell cycle analysis; assay type: cell-based, human; settings: approximately IC75-85, one and two days, propidium iodide FACS
Lambda DNA = test: DNA damage assay; assay type: biochemical; settings: 100 μM and 300 μM, room temperature, one day, PCR amplification
[8] = test system: P388 murine leukemia cell line; test: Cross-resistance assay; assay type: cell-based; settings: P388 vs doxorubicin-resistant derivative; cross-resistant if resistance ratio approximately 2 or higher
Description: The human cancer cell lines DLD-1 (colorectal adenocarcinoma), LNCap (prostate carcinoma), and OVCAR-3 (ovarian carcinoma) were obtained from the American Type Culture Collection, Manassas, Va., U.S.A., and HL-60 (promyeloid myelocytic leukemia), MX-1 (breast carcinoma), P388, and P388ADR from the National Cancer Institute, Bethesda, Md., U.S.A. Carboplatin, doxorubicin, and melphalan were obtained from Sigma-Aldrich Chemical Company, St. Louis, Mo., U.S.A. The CellTiter-Glo assay kit was obtained from Promega Corporation, Madison, Wis., U.S.A., and the Cellular DNA Cytometric Analysis Reagent Kit from Roche Diagnostics Corporation, Indianapolis, Ind., U.S.A. Lambda DNA was obtained from New England Biolabs, Beverly, Mass., U.S.A., and SYBR-Gold from Molecular Probes, Inc., Eugene, Oreg., U.S.A. The DNeasy Tissue Kit was obtained from Qiagen Inc., Valencia, Calif., U.S.A., and AmpliTaq Gold DNA polymerase and PCR reagents from Applied Biosystems, Foster City, Calif., U.S.A. All products were used in accordance with manufacturer's directions. All assays were conducted in triplicate wells, with dimethyl sulfoxide (DMSO) solvent control. The extent of cell growth was expressed as a percentage of the signal from the solvent control wells.

[9] = DLD-1 cells, 4 days culture, CellTiter-Glo, 0.1-200 μM tested
[10] = LNCap cells, 4 days culture, CellTiter-Glo, 0.1-200 μM tested
[11] = MX-1 cells, 3 days culture, CellTiter-Glo, 0.1-200 μM tested
[12] = 100 mg/Kg intraperitoneal once/day for 11 days

| SMILES | IC50 [1, 9] [µM] | activity in MX-1 xenograft assay [2] | IC50 [3, 10] [µM] | IC50 (MX-1 (breast carcinoma); [11]) [µM] | also measured |
| --- | --- | --- | --- | --- | --- |
| CCCCS(=O)(=O)CCOP(=O)(N(CCCl)CCCl)N(CCCl)CCCl [Compound 5A] | 6.6 | active | 42.8 | 14.3 | inhibition of tumor growth compared to vehicle [4, 12]: 10%; activity in HCT116 xenograft assay [4]: active |
| CNC(=O)CS(=O)(=O)CCOP(=O)(N(CCCl)CCCl)N(CCCl)CCCl [Compound 13A, N-methyl-2-[[2-[[bis[bis(2-chloroethyl)amino]phosphinyl]oxy]ethyl]sulfonyl]acetamide] | – | active | – | – | IC50 ([1]; Homo sapiens, DLD-1, 96 h): 7.1 µM; tumor growth inhibition compared to vehicle [2]: 99%; tumor inhibition ([2]; 25 mg/Kg for 5 days): 19%; tumor inhibition ([2]; 100 mg/Kg for 9 days): 99%; dose dependence of tumor inhibition [2]: dose-dependent tumor inhibition; IC50 ([3]; Homo sapiens, LNCaP, 96 h): 53.5 µM; IC50 (MX-1 (breast carcinoma); Homo sapiens, MX1, 72 h): 11.7 µM; inhibition of tumor growth compared to vehicle ([5]; 50 mg/Kg gavage once/day for 5 days): 63%; inhibition of tumor growth compared to vehicle ([5]; 300 mg/Kg gavage once/day for 5 days): 100%; activity in MX-1 xenograft assay, oral [5]: active; dose dependence of tumor inhibition, oral [5]: dose-dependent tumor inhibition; inhibition of tumor growth compared to vehicle [4, 12]: 43%; activity in HCT116 xenograft assay [4]: active; activity in MiaPaCa-2 xenograft assay [6]: active; inhibition of tumor growth compared to vehicle [6]: 78%; activity in MiaPaCa-2 xenograft assay, oral [7]: active; inhibition of tumor growth [7]: 82% |
| O=C(CS(=O)(=O)CCOP(=O)(N(CCCl)CCCl)N(CCCl)CCCl)N[C@@H](Cc1ccccc1)C(=O)O [Compound 15A, N-{2-[[2-[[bis[bis(2-chloroethyl)amino]phosphinyl]oxy]ethyl]sulfonyl]acetyl}-L-phenylalanine] | – | active | – | – | IC50 ([1]; Homo sapiens, DLD-1, 96 h): 13.7 µM; IC50 ([3]; Homo sapiens, LNCaP, 96 h): ≥ 200 µM; IC50 (MX-1 (breast carcinoma); Homo sapiens, MX1, 72 h): 23.6 µM |
| O=C(CS(=O)(=O)CCOP(=O)(N(CCCl)CCCl)N(CCCl)CCCl)NCCN1CCOCC1 [Compound 23A] | 6.6 | active | 47.5 | 25.9 | – |
| N[C@@H](CS(=O)(=O)CCOP(=O)(N(CCCl)CCCl)N(CCCl)CCCl)C(=O)O [Compound 70A, 3-[[2-[[bis[bis(2-chloroethyl)amino]phosphinyl]oxy]ethyl]sulfonyl]-L-alanine] | – | active | – | – | IC50 ([1]; Homo sapiens, DLD-1, 96 h): 10.7 µM; tumor inhibition ([2]; 50 mg/Kg for 5 days): 16%; tumor inhibition ([2]; 150 mg/Kg for 12 days): 95%; dose dependence of tumor inhibition [2]: dose-dependent tumor inhibition; IC50 (MX-1 (breast carcinoma); Homo sapiens, MX1, 72 h): 36.7 µM; inhibition of tumor growth compared to vehicle ([5]; 100 mg/Kg gavage once/day for 5 days): 36%; inhibition of tumor growth compared to vehicle ([5]; 250 mg/Kg gavage once/day for 5 days): 96%; activity in MX-1 xenograft assay, oral [5]: active; dose dependence of tumor inhibition, oral [5]: dose-dependent tumor inhibition; inhibition of tumor growth compared to vehicle ([4]; 150 mg/Kg intraperitoneal once/day for 11 days): 26%; activity in HCT116 xenograft assay [4]: active; activity in MiaPaCa-2 xenograft assay [6]: active; inhibition of tumor growth compared to vehicle [6]: 38%; cell cycle effect (G2/M cycle block) (DLD-1 cells): induced a G2/M cycle block; DNA damage activity (Lambda DNA): only marginal DNA damage activity; cross-resistance with doxorubicin [8]: not cross-resistant; activity in MiaPaCa-2 xenograft assay, oral [7]: active; inhibition of tumor growth [7]: 27% |
| O=C(c1ccco1)C1CCN(C(=O)c2ccc(CS(=O)(=O)CCOP(=O)(N(CCCl)CCCl)N(CCCl)CCCl)cc2)CC1 [Compound 171A] | 6.1 | active | 27.7 | 6.1 | tumor growth inhibition compared to vehicle [2]: 5% |
| CCOC(=O)CNC(=O)c1ccc(CS(=O)(=O)CCOP(=O)(N(CCCl)CCCl)N(CCCl)CCCl)cc1 [Compound 172A, α-[[2-[[bis[bis(2-chloroethyl)amino]phosphinyl]oxy]ethyl]sulfonyl]-4-[(ethoxycarbonylmethyl)-aminocarbonyl]toluene] | – | active | – | – | IC50 ([1]; Homo sapiens, DLD-1, 96 h): 6.1 µM; IC50 ([3]; Homo sapiens, LNCaP, 96 h): 31.6 µM; IC50 (MX-1 (breast carcinoma); Homo sapiens, MX1, 72 h): 4.8 µM |
| O=C(NCCCN1CCOCC1)c1ccc(CS(=O)(=O)CCOP(=O)(N(CCCl)CCCl)N(CCCl)CCCl)cc1 [Compound 175A] | 10.9 | – | 65.1 | 18.2 | – |
| O=C(c1ccc(CS(=O)(=O)CCOP(=O)(N(CCCl)CCCl)N(CCCl)CCCl)cc1)N1CCN(c2ccccn2)CC1 [Compound 176A] | 4.9 | – | 29 | 6.4 | – |
| O=C(c1ccc(CS(=O)(=O)CCOP(=O)(N(CCCl)CCCl)N(CCCl)CCCl)cc1)N1CCN(Cc2ccccc2)CC1 [Compound 177A] | 4.5 | – | 21.1 | 8.8 | – |
| O=P(OCCS(=O)(=O)Cc1ccco1)(N(CCCl)CCCl)N(CCCl)CCCl [Compound 179A] | 7.6 | – | 25.6 | 7.2 | – |
| O=P(OCCS(=O)(=O)Cc1cccs1)(N(CCCl)CCCl)N(CCCl)CCCl [Compound 180A] | 4.9 | active | 16.8 | 9.3 | – |
| O=P(OCCS(=O)(=O)Cc1ccccn1)(N(CCCl)CCCl)N(CCCl)CCCl [Compound 181A] | 7.4 | – | 26.4 | 8.4 | – |
| O=P(OCCS(=O)(=O)Cc1cccc[n+]1[O-])(N(CCCl)CCCl)N(CCCl)CCCl [Compound 182A] | 7.1 | – | 22.3 | 8 | – |
| Cc1ncc(CS(=O)(=O)CCOP(=O)(N(CCCl)CCCl)N(CCCl)CCCl)c(CO)c1O [Compound 183A] | 4.9 | – | 42.1 | 18.4 | – |
| Cc1c(O)c(CO)c(CS(=O)(=O)CCOP(=O)(N(CCCl)CCCl)N(CCCl)CCCl)c[n+]1[O-] [Compound 184A] | 5.3 | – | 94.8 | 28.9 | – |
